The text below walks through data of EP0369388B1, “Hydroxy-1,2,3,4-tetrahydroaminoacridines, a process for their preparation and their use as medicaments” (HOECHST-ROUSSEL PHARMACEUTICALS INCORPORATED, priority 1988, dated 1990).

Where a name gives a salt, the structure may show the parent alone. Where only a bound is given, the exact number is not on record here.

The first assay deals with acetylcholinesterase (Homo sapiens, UniProt P22303). Kind of assay: biochemical.
Chain of acetylcholinesterase (P22303 32-614): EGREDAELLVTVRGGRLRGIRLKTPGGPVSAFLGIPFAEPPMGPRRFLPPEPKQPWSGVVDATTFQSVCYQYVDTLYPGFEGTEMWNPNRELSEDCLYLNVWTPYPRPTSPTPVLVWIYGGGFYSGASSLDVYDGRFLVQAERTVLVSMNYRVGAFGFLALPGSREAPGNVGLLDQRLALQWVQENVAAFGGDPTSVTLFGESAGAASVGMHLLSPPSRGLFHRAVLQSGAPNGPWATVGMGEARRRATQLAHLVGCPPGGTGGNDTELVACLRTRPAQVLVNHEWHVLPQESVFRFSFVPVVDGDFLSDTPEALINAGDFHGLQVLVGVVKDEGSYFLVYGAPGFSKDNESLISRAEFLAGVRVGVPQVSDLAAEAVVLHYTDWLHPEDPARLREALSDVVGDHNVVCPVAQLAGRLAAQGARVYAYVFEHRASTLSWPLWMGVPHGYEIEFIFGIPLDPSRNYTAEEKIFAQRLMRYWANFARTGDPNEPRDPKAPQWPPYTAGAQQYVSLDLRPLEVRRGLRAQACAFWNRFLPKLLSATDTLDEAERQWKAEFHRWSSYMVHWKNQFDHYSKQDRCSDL
Conditions: not given
Here is the method: The ability to inhibit acetylchlinesterase was determined by the photometric method of Ellman et al., Biochem. pharmacol.
As to `Nc1c2c(nc3ccccc13)CCC(OCc1ccccc1)C2` (stereo not shown) [2-Benzyloxy-1,2,3,4-tetrahydro-9-acridinamine], the concentration for half-maximal inhibition (IC50) was above 1000 µM.

`CCCC(=O)OC1CCc2nc3ccccc3c(N)c2C1` (stereo not shown) [2-Butyryloxy-1,2,3,4-tetrahydro-9-acridinamine, fumarate] registered an IC50 of 4.8 µM. As to `CCCCCCCCCC(=O)OC1CCc2nc3ccccc3c(N)c2C1` (stereo not shown) [2-Decanoyloxy-1,2,3,4-tetrahydro-9-acridinamine, fumarate], the IC50 was above 1000 µM. The same measure, in the same setting: for `CCCCCCCCCCCC(=O)OC1CCc2nc3ccccc3c(N)c2C1` (stereo not shown) [2-Lauroyloxy-1,2,3,4-tetrahydro-9-acridinamine] the value was 160 µM; for `CCCCCCCC(=O)OC1CCc2nc3ccccc3c(N)c2C1` (stereo not shown) [2-Octanoyloxy-1,2,3,4-tetrahydro-9-acridinamine, fumarate], 23 µM. Same read-out and setting: for `CCCCC(=O)OC1CCc2nc3ccccc3c(N)c2C1` (stereo not shown) [2-Valeryloxy-1,2,3,4-tetrahydro-9-acridinamine, fumarate] the value was 12 µM; for `Nc1c2c(nc3ccccc13)C(OCc1ccccc1)CCC2` (stereo not shown) [4-Benzyloxy-1,2,3,4-tetrahydro-9-acridinamine], 820 µM.

The assay is the same for the next values; noted with them: Acetylcholinesterase Inhibition; read-out: IC50 (molar conc.).
Turning to `CC(=O)OC1CCc2nc3ccccc3c(N)c2C1` (stereo not shown) [2-Acetoxy-1,2,3,4-tetrahydro-9-acridinamine], the IC50 stood at 6.5 µM.

As to `CCCCCCC(=O)OC1CCc2nc3ccccc3c(N)c2C1` (stereo not shown) [2-Heptanoyloxy-1,2,3,4-tetrahydro-9-acridinamine, fumarate], the IC50 worked out at 31 µM.

With `CCCCCC(=O)OC1CCc2nc3ccccc3c(N)c2C1.O=C(O)/C=C/C(=O)O` (stereo not shown) [2-Hexanoyloxy-1,2,3,4-tetrahydro-9-acridinamine, fumarate], the IC50 came out at 19 µM. `CN(C)C=Nc1c2c(nc3ccccc13)CCC(O)C2` (stereo not shown) [2-Hydroxy-N-(dimethylaminomethylene)-1,2,3,4-tetrahydro-9-acridinamine]: the IC50 was above 1000 µM. Still for that read-out and setting: for `CCCCCCCCC(=O)OC1CCc2nc3ccccc3c(N)c2C1` (stereo not shown) [2-Nonanoyloxy-1,2,3,4-tetrahydro-9-acridinamine, fumarate] the value was above 1000 µM; for `Nc1c2c(nc3ccccc13)CCC(O)C2.O=C(O)/C=C\C(=O)O` (stereo not shown) [9-Amino-1,2,3,4-tetrahydroacridin-2-ol, maleate], 5.3 µM; for `Nc1c2c(nc3ccccc13)C(O)CCC2` (stereo not shown) [9-Amino-1,2,3,4-tetrahydroacridinamin-4-ol, hemifumarate], 1.9 µM.

A further assay relates to mice. Kind of assay: Dark Avoidance Assay (reversal of scopolamine induced memory deficit). The format is in vivo. Particulars: Dose 0.63 mg/kg of body weight, s.c; mice, retest after 24 hours. The procedure:
This utility can also be ascertained by determining the ability of these compounds to restore cholinergically deficient memory in the Dark Avoidance Assay. In this assay mice are tested for their ability to remember an unpleasant stimulus for a period of 24 hours. A mouse is placed in a chamber that contains a dark compartment; a strong incadescent light drives it to the dark compartment, where an electric shock is administered through metal plates on the floor. The animal is removed from the testing apparatus and tested again, 24 hours later, for the ability to remember the electric shock.
If scopolamine, an anticholinergic that is known to cause memory impairment, is administered before an animal's initial exposure to the test chamber, the animal re-enters the dark compartment shortly after being placed in the test chamber 24 hours later. This effect of scopolamine is blocked by an active test compound, resulting in a greater interval before re-entry into the dark compartment.
The results for an active compound are expressed as the percent of a group of animals in which the effect of scopolamine is blocked, as manifested by an increased interval between being placed in the test chamber and re-entering the dark compartment.
Regarding `CCCCCC(=O)OC1CCc2nc3ccccc3c(N)c2C1.O=C(O)/C=C/C(=O)O` (stereo not shown) [2-Hexanoyloxy-1,2,3,4-tetrahydro-9-acridinamine, fumarate], the “% of Animals with Scopolamine Induced Memory Deficit Reversal” value (shortened to “% of Animals”) worked out at 25%.

Still in this assay, the particulars now being: Dose 5.0 mg/kg of body weight, s.c; mice, retest after 24 hours.
Take `CC(=O)OC1CCc2nc3ccccc3c(N)c2C1` (stereo not shown) [2-Acetoxy-1,2,3,4-tetrahydro-9-acridinamine]: the “% of Animals” value is on record as 29%. Still for that read-out and setting: the result for `CCC(=O)OC1CCc2nc3ccccc3c(N)c2C1` (stereo not shown) [2-Propionyloxy-1,2,3,4-tetrahydro-9-acridinamine, fumarate hemihydrate] reads 13%; that for `Nc1c2c(nc3ccccc13)CCC(O)C2.O=C(O)/C=C\C(=O)O` (stereo not shown) [9-Amino-1,2,3,4-tetrahydroacridin-2-ol, maleate], 20%.

Still in this assay, the particulars now being: mouse, in vivo, 0.31 mg/kg.
As to `CNC(=O)Oc1ccc2c(c1)[C@]1(C)CCN(C)[C@@H]1N2C` [Physostigmine, reference compound], the “% of Animals” value worked out at 20%.

One may read the IC50 as the midpoint of a concentration-inhibition curve.
